The source of these data is patent publication US20240336629A1, “Tricyclic Derivatives Useful As PARP7 Inhibitors” (JACOBIO PHARMACEUTICALS CO., LTD., priority 2021, published 2024).

A word on the IC50: it is the concentration that inhibits the measured activity by half. The low end stands for higher potency, the high end for lower potency.

The structures appear in SMILES notation.

For test [1], the system named is lung cancer cell line H1373 (high expression of PARP7). Put plainly: Lung cancer cell proliferation inhibition experiment (CTG method). The class given is cell-based. As to conditions: H1373 cells, 144 hrs incubation, Cell Titer Glo.
The next test has as its target PARP7 enzyme (Homo sapiens (Human), UniProt Q7Z3E1). Put plainly: PARP7 enzymatic experiment (HTRF assay). Particulars: 4PL fit. The class given is biochemical. For orientation: In TR-FRET formats the signal depends on donor and acceptor labels being close together.

Sequence of PARP7 enzyme (Q7Z3E1 456-657): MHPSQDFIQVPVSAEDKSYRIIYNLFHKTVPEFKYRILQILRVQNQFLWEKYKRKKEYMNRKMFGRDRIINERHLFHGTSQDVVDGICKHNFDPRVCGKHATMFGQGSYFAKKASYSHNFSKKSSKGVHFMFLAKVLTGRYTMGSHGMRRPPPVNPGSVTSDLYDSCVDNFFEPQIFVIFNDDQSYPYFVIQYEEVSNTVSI

Regarding `C[C@@H](COCCC(=O)N1CCN2c3ncc(F)cc3N(C)C(=O)[C@@H]2C1)Nc1cn[nH]c(=O)c1C(F)(F)F` (single isomer, unassigned) [Compound 19A], the IC50 in test [1] (Homo sapiens, NCI-H1373, 144 h) came to 0.269 µM; on PARP7 enzyme it was 0.0017 µM.
On the same counts, the results for `C[C@@H](COCCC(=O)N1CCN2c3ncc(Cl)cc3N(C)C(=O)[C@H]2C1)Nc1cn[nH]c(=O)c1C(F)(F)F` (single isomer, unassigned) [Compound 20B] are 0.0574 µM and 0.00185 µM.
On the same counts, the results for `CCN1C(=O)[C@@H]2CN(C(=O)CCOC[C@H](C)Nc3cn[nH]c(=O)c3C(F)(F)F)CCN2c2ncc(Br)cc21` (single isomer, unassigned) [Compound 23A] are 0.117 µM and 0.000804 µM.
As to `CC(C)N1C(=O)[C@H]2CN(C(=O)CCOC[C@H](C)Nc3cn[nH]c(=O)c3C(F)(F)F)CCN2c2ncc(C(F)(F)F)cc21` (single isomer, unassigned) [Compound 24B], 0.00317 µM corresponded to half-maximal inhibition on PARP7 enzyme (IC50).
Take `COC[C@@H](COCCC(=O)N1CCN2c3ncc(C(F)(F)F)cc3OC[C@H]2C1)Nc1cn[nH]c(=O)c1C(F)(F)F` (single isomer, unassigned) [Compound 66A]: the IC50 in test [1] stood at 0.0855 µM; against PARP7 enzyme it was 0.00205 µM.
Regarding `COC[C@@H](COCCC(=O)N1CCN2c3ncc(C(F)(F)F)cc3OC[C@@H]2C1)Nc1cn[nH]c(=O)c1C(F)(F)F` (single isomer, unassigned) [Compound 66B], the results for the IC50 (in test [1]; against PARP7 enzyme) were 0.0704 µM and 0.00182 µM, respectively.
As to `CC(=O)c1c(N[C@@H](C)COCCC(=O)N2CCN3c4ncc(C(F)(F)F)cc4OCC[C@H]3C2)cn[nH]c1=O` (single isomer, unassigned) [Compound 70A], the IC50 in test [1] was determined as 0.0287 µM; on PARP7 enzyme it was 0.0015 µM.
`CC(=O)c1c(N[C@@H](C)COCCC(=O)N2CCN3c4ncc(C(F)(F)F)cc4OCC[C@@H]3C2)cn[nH]c1=O` (single isomer, unassigned) [Compound 70B]: the IC50 in test [1] amounted to 0.342 µM; against PARP7 enzyme, 0.00754 µM.
The matching figures for `C[C@@H](COCCC(=O)N1CCN2c3ncc(C(F)(F)F)cc3SCC[C@H]2C1)Nc1cn[nH]c(=O)c1C(F)(F)F` (single isomer, unassigned) [Compound 71B]: 0.912 µM and 0.0149 µM.
On the same counts, the results for `C[C@@H](COCCC(=O)N1CCN2c3ncc(Br)cc3SCC[C@H]2C1)Nc1cn[nH]c(=O)c1C(F)(F)F` (single isomer, unassigned) [Compound 72A] are 0.0133 µM and 0.000837 µM.
As for `C[C@@H](COCCC(=O)N1CCN2c3ncc(Br)cc3SCC[C@@H]2C1)Nc1cn[nH]c(=O)c1C(F)(F)F` (single isomer, unassigned) [Compound 72B], the IC50 against PARP7 enzyme stood at 0.00724 µM.
Consider `C[C@@H](COCCC(=O)N1CCN2c3ncc(Cl)cc3SCC[C@H]2C1)Nc1cn[nH]c(=O)c1C(F)(F)F` (single isomer, unassigned) [Compound 73B], for which the IC50 against PARP7 enzyme was determined as 0.0179 µM.
As for `C[C@@H](COCCC(=O)N1CCN2c3ncc(C(F)(F)F)cc3C(=O)C[C@@H]2C1)Nc1cn[nH]c(=O)c1C(F)(F)F` (single isomer, unassigned) [Compound 76A], the IC50 came out at 0.36 µM in test [1] and 0.00331 µM on PARP7 enzyme.
Regarding `C[C@@H](COCCC(=O)N1CCN2c3ncc(C(F)(F)F)cc3C(=O)C[C@H]2C1)Nc1cn[nH]c(=O)c1C(F)(F)F` (single isomer, unassigned) [Compound 76B], the IC50 in test [1] worked out at 0.404 µM; against PARP7 enzyme it was 0.00504 µM.
The matching figures for `C[C@@H](COCCC(=O)N1CCN2c3ncc(C(F)(F)F)cc3C(F)(F)C[C@@H]2C1)Nc1cn[nH]c(=O)c1C(F)(F)F` (single isomer, unassigned) [Compound 77A]: 0.349 µM and 0.0126 µM.
The matching figures for `C[C@@H](COCCC(=O)N1CCN2c3ncc(C(F)(F)F)cc3C(F)(F)C[C@H]2C1)Nc1cn[nH]c(=O)c1C(F)(F)F` (single isomer, unassigned) [Compound 77B]: 0.334 µM and 0.004 µM.
Turning to `COc1ccc(Cn2ncc(N3CC[C@H]3COCCC(=O)N3CCN4c5ncc(C(F)(F)F)cc5N(C)C(=O)[C@@H]4C3)c(C(F)(F)F)c2=O)cc1` (single isomer, unassigned) [Compound 87A], the IC50 in test [1] stood at 0.0058 µM.
Turning to `COc1ccc(Cn2ncc(N3CC[C@H]3COCCC(=O)N3CCN4c5ncc(C(F)(F)F)cc5N(C)C(=O)[C@H]4C3)c(C(F)(F)F)c2=O)cc1` (single isomer, unassigned) [Compound 87B], 0.00535 µM corresponded to half-maximal inhibition in test [1] (IC50).
`C[C@@H](COCCC(=O)N1CCN2c3ncc(C(F)(F)F)cc3NC(=O)CC2C1)Nc1cn[nH]c(=O)c1C(F)(F)F` (stereo partly shown) [Compound 1A] registered an IC50 against PARP7 enzyme of 0.0343 µM.
As for `C[C@@H](COCCC(=O)N1CCN2c3ncc(C(F)(F)F)cc3N(CC(F)(F)F)C(=O)C2C1)Nc1cn[nH]c(=O)c1C(F)(F)F` (stereo partly shown) [Compound 8], in test [1] (Homo sapiens, NCI-H1373, 144 h), the midpoint of inhibition, the IC50, lay at 0.203 µM.
The compound `C[C@@H](COCCC(=O)N1CCc2c(c(=O)n(C)c3cc(C(F)(F)F)cnc23)C1)Nc1cn[nH]c(=O)c1C(F)(F)F` [Compound 12] gave an IC50 on PARP7 enzyme of 0.00292 µM.
Same read-out and setting: with `C[C@@H](COCCC(=O)N1CCN2c3nc(F)c(Cl)cc3N(C)C(=O)[C@H]2C1)Nc1cn[nH]c(=O)c1C(F)(F)F` [Compound 14B] the figure was 0.0399 µM.
Still for that read-out and setting: next, `C[C@@H](COCCC(=O)N1CCN2c3ncc(C(F)(F)F)cc3N(C)C(=O)[C@@H]2C1)Nc1cn[nH]c(=O)c1Cl` [Compound 31A]: 0.0258 µM.
As to `C[C@@H](COCCC(=O)N1CCN2c3ncc(C(F)(F)F)cc3N(C)C(=O)[C@H]2C1)Nc1cn[nH]c(=O)c1Cl` [Compound 31B], it took 0.059 µM to reach half-maximal inhibition on PARP7 enzyme (IC50).
Still for that read-out and setting: next, `C[C@@H](COCCC(=O)N1CCN2c3ncc(C(F)(F)F)cc3N(C)C(=O)[C@@H]2C1)Nc1cn[nH]c(=O)c1Br` [Compound 32A]: 0.00825 µM.
Still for that read-out and setting: next, `C[C@@H](COCCC(=O)N1CCN2c3ncc(C(F)(F)F)cc3N(C)C(=O)[C@H]2C1)Nc1cn[nH]c(=O)c1Br` [Compound 32B]: 0.02 µM.
For `C[C@@H](COCCC(=O)N1CCN2c3ncc(C(F)(F)F)cc3NCCC2C1)Nc1cn[nH]c(=O)c1C(F)(F)F` (stereo partly shown) [Compound 37], the IC50 in test [1] (Homo sapiens, NCI-H1373, 144 h) turned out to be 0.203 µM.
In turn, `C[C@@H](COCCC(=O)N1CCN2c3ncc(C(F)(F)F)cc3N(C)CC2C1)Nc1cn[nH]c(=O)c1C(F)(F)F` (stereo partly shown) [Compound 39] came in with a half-inhibitory concentration (IC50) in test [1] (Homo sapiens, NCI-H1373, 144 h) of 0.108 µM.
In test [1] (Homo sapiens, NCI-H1373, 144 h), `C[C@@H](COCCC(=O)N1CCN2c3ncc(C(F)(F)F)cc3N(C)CCC2C1)Nc1cn[nH]c(=O)c1C(F)(F)F` (stereo partly shown) [Compound 40] came in with a concentration for half-maximal inhibition (IC50) of 0.26 µM.
`C[C@@H](COCCC(=O)N1CCn2c(cc3cc(C(F)(F)F)cnc32)C1)Nc1cn[nH]c(=O)c1C(F)(F)F` [Compound 41] registered an IC50 in test [1] (Homo sapiens, NCI-H1373, 144 h) of 0.276 µM.
As for `C[C@@H](COCCC(=O)N1CCn2c(c(Cl)c3cc(C(F)(F)F)cnc32)C1)Nc1cn[nH]c(=O)c1C(F)(F)F` [Compound 42], in test [1] (Homo sapiens, NCI-H1373, 144 h), the IC50 was 0.138 µM.
`Cc1c2n(c3ncc(C(F)(F)F)cc13)CCN(C(=O)CCOC[C@H](C)Nc1cn[nH]c(=O)c1C(F)(F)F)C2` [Compound 43] registered an IC50 in test [1] (Homo sapiens, NCI-H1373, 144 h) of 0.105 µM.
The same measure, in the same setting: with `C[C@@H](COCCC(=O)N1CCn2c(nc3cc(C(F)(F)F)cnc32)C1)Oc1cn[nH]c(=O)c1C(F)(F)F` [Compound 49A] the figure was 0.185 µM.
Same read-out and setting: next, `C[C@@H](COCCC(=O)N1CCN2c3ncc(C(F)(F)F)cc3OC[C@H]2C1)Nc1cn[nH]c(=O)c1C(F)(F)F` [Compound 53A]: 0.296 µM.
`C[C@@H](COCCC(=O)N1CCN2c3ncc(C(F)(F)F)cc3OC[C@@H]2C1)Nc1cn[nH]c(=O)c1C(F)(F)F` [Compound 53B] yielded an IC50 in test [1] (Homo sapiens, NCI-H1373, 144 h) of 0.214 µM.
The same measure, in the same setting: next, `C[C@@H](COCCC(=O)N1CCN2c3ncc(C(F)(F)F)cc3OCC2C1)Nc1cn[nH]c(=O)c1C(F)(F)F` (stereo partly shown) [Compound 53]: 0.0797 µM; `C[C@@H](COCCC(=O)N1CCN2c3ncc(C(F)(F)F)cc3OCCC2C1)Nc1cn[nH]c(=O)c1C(F)(F)F` (stereo partly shown) [Compound 54]: 0.0636 µM.
Turning to `C[C@@H](COC[C@H](O)C(=O)N1CCN2c3ncc(Cl)cc3OCCC2C1)Nc1cn[nH]c(=O)c1C(F)(F)F` (stereo partly shown) [Compound 64B], the IC50 against PARP7 enzyme turned out to be 0.00946 µM.
On to `C[C@@H](COCCC(=O)N1CCN2c3ncc(C(F)(F)F)cc3[S@+]([O-])CC[C@@H]2C1)Nc1cn[nH]c(=O)c1C(F)(F)F` [Compound 74A], for which inhibition at PARP7 enzyme was half-maximal at 0.00216 µM (IC50).
In the case of `C[C@@H](COCCC(=O)N1CCN2c3ncc(C(F)(F)F)cc3[S@+]([O-])CC[C@H]2C1)Nc1cn[nH]c(=O)c1C(F)(F)F` [Compound 74B], 0.00223 µM corresponded to half-maximal inhibition against PARP7 enzyme (IC50).
Same read-out and setting: with `C[C@@H](COCCC(=O)N1CCN2c3ncc(C(F)(F)F)cc3[S@@+]([O-])CC[C@@H]2C1)Nc1cn[nH]c(=O)c1C(F)(F)F` [Compound 74C] the figure was 0.0554 µM.
Same read-out and setting: next, `C[C@@H](COCCC(=O)N1CCN2c3ncc(C(F)(F)F)cc3[S@@+]([O-])CC[C@H]2C1)Nc1cn[nH]c(=O)c1C(F)(F)F` [Compound 74D]: 0.0722 µM.
`C[C@@H](COCCC(=O)N1CCN2c3ncc(C(F)(F)F)cc3S(=O)(=O)CC[C@@H]2C1)Nc1cn[nH]c(=O)c1C(F)(F)F` [Compound 75A]: on PARP7 enzyme, half-maximal inhibition (IC50) was put at 0.00364 µM.
For the compound `C[C@@H](COCCC(=O)N1CCN2c3ncc(C(F)(F)F)cc3S(=O)(=O)CC[C@H]2C1)Nc1cn[nH]c(=O)c1C(F)(F)F` [Compound 75B], on PARP7 enzyme, the IC50 was found to be 0.0135 µM.
Still for that read-out and setting: with `C[C@@H](COCCC(=O)N1CCN2c3ncc(C(F)(F)F)cc3C(C)(O)CC2C1)Nc1cn[nH]c(=O)c1C(F)(F)F` (stereo partly shown) [Compound 78] the figure was 0.00283 µM.
Consider `C[C@H](COCCC(=O)N1CCN2c3ncc(C(F)(F)F)cc3N(C)C(=O)[C@@H]2C1)Oc1cn[nH]c(=O)c1C(F)(F)F` [Compound 81C], for which, in test [1], half-maximal inhibition (IC50) required 0.0192 µM.
On the same count and under the same terms, next, `C[C@H](COCCC(=O)N1CCN2c3ncc(C(F)(F)F)cc3N(C)C(=O)[C@H]2C1)Oc1cn[nH]c(=O)c1C(F)(F)F` [Compound 81D]: 0.0123 µM.
Turning to `CC(COCCC(=O)N1CCN2c3ncc(Cl)cc3OCCC2C1)Oc1cn[nH]c(=O)c1C(F)(F)F` (stereo not shown) [Compound 84], the IC50 at PARP7 enzyme came to 0.00401 µM.
